PMC12080345 (Journal of medicinal chemistry, 2023)

Assay: Acute toxicity assay in mice
Type: in vivo
Conditions: 200 mg/kg

For `COc1cc(Cn2ccc3cc(C(=O)NCC45C[C@H]6C[C@@H](C4)C[C@@H](C5)C6)ccc32)ccc1C(=O)NO` [4e, N-(((3r,5r,7r)-Adamantan-1-yl)methyl)-1-(4-(hydroxycarbamoyl)-3-methoxybenzyl)-1H-indole-5-carboxamide], which adverse effect is on record?
The adverse effect was “no observed adverse effect”.
